Measured values as given in PubChem BioAssay (NCI).
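Compound exposure: 48 hours, 5 concentrations, 96-well plates. At the GI50, growth is halved. TGI denotes the concentration required for complete inhibition of growth.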

Legend:
Assay in all cases: DTP human tumour cell line panel, 48 h
[1] = system: SW-620 colon
[2] = system: SN12C renal
[3] = system: K-562 leukemia
[4] = system: CAKI-1 renal
[5] = system: SK-MEL-2 melanoma
[6] = system: OVCAR-4 ovarian
[7] = system: HOP-18 NSCLC
[8] = system: UACC-257 melanoma
[9] = system: IGROV1 ovarian
[10] = system: LXFL 529 NSCLC
[11] = system: UACC-62 melanoma
[12] = system: OVCAR-3 ovarian
[13] = system: OVCAR-5 ovarian
[14] = system: TK-10 renal
[15] = system: 786-0 renal
[16] = system: NCI-H522 lung
[17] = system: ACHN renal
[18] = system: NCI-H460 lung
[19] = system: SR leukemia
[20] = system: HCT-116 colon
[21] = system: UO-31 renal
[22] = system: HOP-62 NSCLC
[23] = system: RXF 393 renal
[24] = system: EKVX NSCLC
[25] = system: HT29 colon
[26] = system: XF 498 CNS
[27] = system: A549 NSCLC
[28] = system: SF-268 CNS
[29] = system: MALME-3M melanoma
[30] = system: SNB-78 CNS
[31] = system: SK-MEL-28 melanoma
[32] = system: U251 CNS
[33] = system: KM20L2 colon
[34] = system: SNB-75 CNS
[35] = system: NCI-H23 lung
[36] = system: DMS 273 small cell lung
[37] = system: LOX IMVI melanoma
[38] = system: KM12 colon
[39] = system: COLO 205 colon
[40] = system: SK-MEL-5 melanoma
[41] = system: DMS 114 small cell lung
[42] = system: SF-295 CNS
[43] = system: OVCAR-8 ovarian
[44] = system: CCRF-CEM leukemia
[45] = system: SNB-19 CNS
[46] = system: MOLT-4 leukemia
[47] = system: HCT-15 colon
[48] = system: RPMI-8226 leukemia
[49] = system: DLD-1 colon
[50] = system: SK-OV-3 ovarian
[51] = system: HCC-2998 colon
[52] = system: M14 melanoma
[53] = system: HL-60(TB) leukemia
[54] = system: NCI-H226 lung
[55] = system: M19-MEL melanoma
[56] = system: BT-549 breast
[57] = system: PC-3 prostate
[58] = system: NCI/ADR-RES ovarian
[59] = system: T-47D breast
[60] = system: HS 578T breast
[61] = system: MDA-MB-231 breast
[62] = system: MDA-N
[63] = system: HOP-92 NSCLC
[64] = system: DU-145 prostate
[65] = system: MCF7 breast
[66] = system: MDA-MB-435
[67] = system: A498 renal
[68] = system: SF-539 CNS
[69] = system: RXF-631 renal

SMILES: O=C(Cc1ccccc1)NN1C(=O)C(Cl)C1c1cc(Br)cc(Br)c1O (stereo unspecified)
- TGI [1]: 30.5 µM
- TGI [2]: > 100 µM
- TGI [3]: 34.1 µM
- TGI [4]: 78.5 µM
- TGI [5]: 36.6 µM
- TGI [6]: 80.4 µM
- TGI [7]: 31.4 µM
- TGI [8]: 39.4 µM
- TGI [9]: 58.9 µM
- TGI [10]: 50 µM
- TGI [11]: 61.6 µM
- TGI [12]: 10.7 µM
- TGI [13]: 38.5 µM
- TGI [14]: > 100 µM
- TGI [15]: 36.7 µM
- TGI [16]: 16.9 µM
- TGI [17]: > 100 µM
- TGI [18]: 22.4 µM
- TGI [19]: 13.1 µM
- TGI [20]: 16 µM
- TGI [21]: 20.6 µM
- TGI [22]: 54 µM
- TGI [23]: 40.4 µM
- TGI [24]: 68.1 µM
- TGI [25]: 63.4 µM
- TGI [26]: 79.3 µM
- TGI [27]: 76.1 µM
- TGI [28]: 43.3 µM
- TGI [29]: 51.9 µM
- TGI [30]: 83 µM
- TGI [31]: 35.3 µM
- TGI [32]: 31.4 µM
- TGI [33]: > 100 µM
- TGI [34]: 56.1 µM
- TGI [35]: 33.2 µM
- TGI [36]: 65.2 µM
- TGI [37]: 40 µM
- TGI [38]: > 100 µM
- TGI [39]: 44.8 µM
- TGI [40]: 29.6 µM
- TGI [41]: 17.8 µM
- TGI [42]: 98.7 µM
- TGI [43]: > 100 µM
- TGI [44]: 24.1 µM
- TGI [45]: 38.9 µM
- TGI [46]: 13.2 µM
- TGI [47]: > 100 µM
- TGI [48]: 29.1 µM
- TGI [49]: > 100 µM
- TGI [50]: 62.6 µM
- TGI [51]: 31.1 µM
- TGI [52]: 45.6 µM
- TGI [53]: 10.1 µM
- TGI [54]: 36.9 µM
- TGI [55]: 63.2 µM

SMILES: COc1cc2c(cc1O)CCN[C@@]21CS[C@H]2c3c(OC(C)=O)c(C)c4c(c3C(COC1=O)N1C2C2c3c(cc(C)c(OC)c3O)CC([C@@H]1O)N2C)OCO4 (stereo partly specified)
- TGI [56]: 0.00987 µM
- TGI [2]: 4.41e-06 µM
- GI50 [3]: < 1 pM
- TGI [3]: 1.54e-05 µM
- GI50 [4]: 0.00269 µM
- TGI [4]: 0.0622 µM
- GI50 [9]: 0.000783 µM
- TGI [10]: 4.31e-05 µM
- GI50 [57]: 0.00429 µM
- GI50 [58]: 0.0112 µM
- GI50 [16]: 0.000953 µM
- TGI [16]: 0.00273 µM
- TGI [17]: 0.0012 µM
- TGI [59]: > 1 µM
- TGI [19]: 0.00131 µM
- GI50 [20]: 0.00305 µM
- TGI [20]: > 0.525 µM
- GI50 [21]: < 1 pM
- TGI [21]: < 1e-06 µM
- TGI [22]: < 1e-06 µM
- GI50 [60]: 0.00279 µM
- TGI [60]: 0.0137 µM
- TGI [26]: < 1e-06 µM
- GI50 [31]: 0.00242 µM
- TGI [31]: 0.00682 µM
- TGI [33]: 6.01e-05 µM
- GI50 [61]: 0.00325 µM
- TGI [61]: 0.0357 µM
- GI50 [62]: 0.00247 µM
- TGI [62]: 0.0108 µM
- TGI [36]: < 1e-06 µM
- GI50 [38]: 0.00337 µM
- TGI [38]: 0.0161 µM
- GI50 [42]: 0.000788 µM
- TGI [42]: 0.0277 µM
- GI50 [43]: 0.00149 µM
- TGI [44]: < 1e-06 µM
- GI50 [46]: < 1 pM
- GI50 [47]: 0.00282 µM
- GI50 [63]: 0.00347 µM
- TGI [63]: 0.064 µM
- TGI [49]: 0.0013 µM
- GI50 [50]: 0.00246 µM
- GI50 [64]: 0.00462 µM
- GI50 [65]: 0.000277 µM
- GI50 [66]: 0.00219 µM
- TGI [66]: 0.00604 µM
- TGI [52]: 0.00473 µM
- GI50 [53]: < 1 pM
- TGI [53]: < 1e-06 µM
- GI50 [54]: < 1 pM
- TGI [54]: < 1e-06 µM
- TGI [55]: < 1e-06 µM

SMILES: NC(N)=NS(=O)(=O)c1ccc(NC(=O)c2ccc(Cl)c3c(Nc4ccc(S(=O)(=O)N=C(N)N)cc4)c4ccccc4nc23)cc1
- TGI [1]: > 100 µM
- TGI [2]: > 100 µM
- TGI [3]: > 100 µM
- TGI [4]: > 100 µM
- TGI [5]: > 100 µM
- TGI [6]: > 100 µM
- TGI [7]: > 100 µM
- TGI [8]: > 100 µM
- TGI [9]: > 100 µM
- TGI [10]: > 100 µM
- TGI [11]: > 100 µM
- TGI [12]: > 100 µM
- TGI [13]: > 100 µM
- TGI [15]: > 100 µM
- TGI [16]: > 100 µM
- TGI [17]: > 100 µM
- TGI [18]: > 100 µM
- TGI [21]: > 100 µM
- TGI [22]: > 100 µM
- TGI [23]: > 100 µM
- TGI [24]: > 100 µM
- TGI [25]: > 100 µM
- TGI [27]: > 100 µM
- TGI [28]: > 100 µM
- TGI [29]: > 100 µM
- TGI [30]: > 100 µM
- TGI [31]: > 100 µM
- TGI [32]: > 100 µM
- TGI [33]: > 100 µM
- TGI [67]: > 100 µM
- TGI [34]: 98.5 µM
- TGI [35]: > 100 µM
- TGI [36]: > 100 µM
- TGI [37]: > 100 µM
- TGI [38]: > 100 µM
- TGI [39]: > 100 µM
- TGI [41]: > 100 µM
- TGI [42]: > 100 µM
- TGI [43]: > 100 µM
- TGI [44]: > 100 µM
- TGI [45]: > 100 µM
- TGI [46]: > 100 µM
- TGI [47]: > 100 µM
- TGI [68]: > 100 µM
- TGI [48]: > 100 µM
- TGI [63]: 79.9 µM
- TGI [69]: > 100 µM
- TGI [49]: > 100 µM
- TGI [50]: > 100 µM
- TGI [52]: > 100 µM
- TGI [53]: > 100 µM
- TGI [55]: > 100 µM

SMILES: c1ccc(SCCP(CCP(c2ccccc2)c2ccccc2)c2ccccc2)cc1 (stereo unspecified)
- TGI [1]: > 100 µM
- TGI [56]: 68.7 µM
- TGI [2]: > 88.6 µM
- TGI [3]: > 100 µM
- TGI [4]: 63.3 µM
- TGI [5]: 7.52 µM
- TGI [6]: 97.1 µM
- TGI [7]: 14 µM
- TGI [8]: > 74.7 µM
- TGI [9]: > 100 µM
- TGI [10]: 23.3 µM
- TGI [12]: 39.9 µM
- TGI [58]: > 100 µM
- TGI [13]: > 100 µM
- TGI [14]: > 100 µM
- TGI [15]: > 100 µM
- TGI [17]: > 76 µM
- TGI [59]: 79.1 µM
- TGI [18]: > 100 µM
- TGI [20]: > 24.3 µM
- TGI [21]: 53.9 µM
- TGI [22]: > 100 µM
- TGI [23]: > 100 µM
- TGI [60]: > 100 µM
- TGI [24]: > 67.5 µM
- TGI [25]: > 100 µM
- TGI [26]: 8.15 µM
- TGI [27]: > 100 µM
- TGI [28]: > 100 µM
- TGI [29]: > 59.1 µM
- TGI [30]: > 100 µM
- TGI [31]: > 100 µM
- TGI [32]: > 100 µM
- TGI [61]: > 100 µM
- TGI [34]: > 19.6 µM
- TGI [62]: > 100 µM
- TGI [35]: > 54.1 µM
- TGI [36]: 13.6 µM
- TGI [38]: > 51 µM
- TGI [39]: 15.8 µM
- TGI [40]: 33.8 µM
- TGI [41]: 33.2 µM
- TGI [42]: > 100 µM
- TGI [43]: > 100 µM
- TGI [44]: > 100 µM
- TGI [45]: > 100 µM
- TGI [46]: 81.5 µM
- TGI [47]: > 100 µM
- TGI [68]: > 100 µM
- TGI [48]: > 66.3 µM
- TGI [63]: 15.1 µM
- TGI [49]: > 100 µM
- TGI [50]: > 100 µM
- TGI [64]: > 100 µM
- TGI [51]: > 100 µM
- TGI [65]: > 100 µM
- TGI [66]: > 100 µM
- TGI [52]: 43.5 µM
- TGI [53]: > 22.2 µM
- TGI [54]: > 87.6 µM
- TGI [55]: > 100 µM
